From patent US9682925B2, “Cyclopropaneamine compound” (TAKEDA PHARMACEUTICAL COMPANY LIMITED, priority 2011, dated 2017)
Structures can show the parent of a compound that is named as a salt. Where two headings read alike, the source gives them in different places.

What was measured:
Type in all cases: biochemical
[1] = biological target: T1, MAO-B (Homo sapiens, UniProt P27338); experiment: Measurement of MAO-B inhibitory activity (MAO-Glo Assay)
T1 construct: purchased Sigma-Aldrich Co. LLC
T1 sequence (P27338 1-520): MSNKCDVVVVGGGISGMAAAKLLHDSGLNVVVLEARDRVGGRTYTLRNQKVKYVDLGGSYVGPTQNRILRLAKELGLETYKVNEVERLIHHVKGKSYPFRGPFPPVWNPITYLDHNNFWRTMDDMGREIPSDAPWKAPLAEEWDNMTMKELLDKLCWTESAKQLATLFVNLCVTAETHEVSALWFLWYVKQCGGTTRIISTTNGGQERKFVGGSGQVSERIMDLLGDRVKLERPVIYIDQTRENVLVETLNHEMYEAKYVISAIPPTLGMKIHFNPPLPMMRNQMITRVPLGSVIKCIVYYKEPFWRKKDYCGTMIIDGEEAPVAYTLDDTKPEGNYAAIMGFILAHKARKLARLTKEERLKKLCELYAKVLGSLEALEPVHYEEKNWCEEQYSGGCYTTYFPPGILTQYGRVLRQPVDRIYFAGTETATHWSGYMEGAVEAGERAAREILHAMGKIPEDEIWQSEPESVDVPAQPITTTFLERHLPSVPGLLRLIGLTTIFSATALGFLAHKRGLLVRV
Method: (2) Measurement of MAO-B Inhibitory Activity
The MAO-B inhibitory activity evaluation described below followed the protocol of MAO-Glo (registered trademark) Assay of Promega KK.
(§1) A test compound dissolved in 4% DMSO was added by 12.5 μL to 25 μL reaction solution (100 mM HEPES (pH 7.5), 5% glycerol, 10% DMSO) containing 400 ng of MAO-B enzyme (Sigma-Aldrich Co. LLC.), and the mixture was reacted at room temperature for 10 min. MAO substrate (Promega KK) (16 μM) was added by 12.5 μL to start the reaction. After reaction at room temperature for 60 min, Luciferine detection reagent (Promega KK) (50 μL) was added to terminate the reaction. After reaction at room temperature for 20 min with stirring, the luminescence was measured by Envision (PerkinElmer). The MAO-B inhibitory rate (%) of the test compound was calculated by the following formula. inhibitory rate (%)=(1−(test compound count−blank)÷(control−blank)×100
The count of the MAO-B enzyme reaction mixture under compound non-addition conditions is indicated as control, and the count under compound non-addition and MAO-B enzyme non-addition conditions is indicated as blank.

[2] = biological target: T2, MAO-A (Homo sapiens, UniProt P21397); experiment: Measurement of MAO-A inhibitory activity (MAO-Glo Assay)
T2 construct: purchased Sigma-Aldrich Co. LLC
T2 sequence (P21397 1-527): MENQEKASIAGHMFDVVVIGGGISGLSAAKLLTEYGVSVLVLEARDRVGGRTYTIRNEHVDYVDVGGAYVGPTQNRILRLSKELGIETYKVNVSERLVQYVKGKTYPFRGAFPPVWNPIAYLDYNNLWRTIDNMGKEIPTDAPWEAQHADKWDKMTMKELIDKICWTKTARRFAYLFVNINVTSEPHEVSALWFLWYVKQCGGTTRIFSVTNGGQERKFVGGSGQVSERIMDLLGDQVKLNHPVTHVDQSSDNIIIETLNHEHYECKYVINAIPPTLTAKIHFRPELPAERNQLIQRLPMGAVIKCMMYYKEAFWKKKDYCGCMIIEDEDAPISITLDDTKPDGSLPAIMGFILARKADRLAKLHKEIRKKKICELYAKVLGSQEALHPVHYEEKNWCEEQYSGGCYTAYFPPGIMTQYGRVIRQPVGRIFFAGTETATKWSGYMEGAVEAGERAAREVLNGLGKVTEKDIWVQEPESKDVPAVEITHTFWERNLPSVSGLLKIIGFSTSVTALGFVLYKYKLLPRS
Method: (1) Measurement of MAO-A Inhibitory Activity
The MAO-A inhibitory activity evaluation described below followed the protocol of MAO-Glo (registered trademark) Assay of Promega KK.
as §1, with “glycerol)” for “glycerol, 10% DMSO)”, “MAO-A” for “MAO-B”, “(160” for “(16”
The count of the MAO-A enzyme reaction mixture under compound non-addition conditions is indicated as control, and the count under compound non-addition and MAO-A enzyme non-addition conditions is indicated as blank.

[3] = biological target: T3, human LSD1(171-852) (Homo sapiens, UniProt O60341); experiment: Measurement of LSD1 inhibitory activity (time-resolved fluorescence, biotin-histone H3 mono methylated K4 peptide)
T3 construct: to give hLSD1(171-852) purified product; made in house; host or cells: Escherichia coli C43(DE3) pLysS
Method: When the turbidity reached 600 Klett units, the culture temperature was changed to 16° C., IPTG having a final concentration of 0.5 mM was added to induce expression, and the cells were cultured further for 21 hr. The culture medium was centrifuged at 9,000 g for 10 min, and Escherichia coli pellets were recovered.
Escherichia coli pellets in 9 L of the culture medium were suspended in 1340 mL of an extraction buffer (PBS, 5% (V/V) Glycerol), and 6700 units of Benzonase (Merck) were added. Using Branson ultrasonic disintegrator, the suspension was disrupted by ultrasonication for 3 min, and centrifuged at 33,000 g for 20 min, and the supernatant was recovered.
(5) Measurement of LSD1 Inhibitory Activity
After reaction at room temperature for 20 min, 1 mM 2-PCPA solution (5 μL) was added to terminate the reaction. A detection solution (800 mM potassium fluoride, 0.1% BSA) containing europium-labeled antihistone H3 antibody (Wako Pure Chemical Industries, Ltd.) and Streptavidin-XL665 (Cisbio) was further added by 5 μL, and the mixture was left standing for 60 min. A time-resolved fluorescence (excitation 320 nm, emission 615 nm, 665 nm) was measured by Envision (PerkinElmer). The LSD1 inhibitory rate (%) of the test compound was calculated by the following formula. inhibitory rate (%)=(1−(test compound count−blank)÷(control−blank)×100
The count of the LSD1 enzyme reaction mixture under compound non-addition conditions is indicated as control, and the count under compound non-addition and LSD1 enzyme non-addition conditions is indicated as blank.

IC50 [1] [µM]	IC50 [2] [µM]	IC50 ([3]; read-out: LSD1 IC50 value) [µM]	SMILES	IC50 [3] [µM]
> 10	> 10	0.41	O=C(N[C@H](Cc1ccccc1)C(=O)Nc1ccc(C2CC2NCc2ccccc2)cc1)OCc1ccccc1 (stereo in doubt) [Example 58, N-{4-[trans-2-(benzylamino)cyclopropyl]phenyl}-Nα-[(benzyloxy)carbonyl]-D-phenylalaninamide hydrochloride]	
> 10	> 10	0.1	CN(C)c1ccccc1CN[C@@H]1C[C@H]1c1ccc(NC(=O)c2cccc(C(F)(F)F)c2)cc1 (relative stereo) [Example 142, N-{4-[trans-2-{[2-(dimethylamino)benzyl]amino}cyclopropyl]phenyl}-3-(trifluoromethyl)benzamide hydrochloride]	
> 10	> 10	< 0.1	O=C(Nc1ccc([C@@H]2C[C@H]2NCc2ccc3c(c2)OCO3)cc1)c1ccc(-c2ccccc2)cc1 (relative stereo) [Example 42, N-(4-{trans-2-[(1,3-benzodioxol-5-ylmethyl)amino]-cyclopropyl}-phenyl)biphenyl-4-carboxamide]	
> 10	> 10	< 0.1	CC(C)(C)c1ccc(C(=O)Nc2ccc([C@@H]3C[C@H]3NCC3CC3)cc2)cc1 (relative stereo) [Example 70, 4-tert-butyl-N-(4-{trans-2-[(cyclopropylmethyl)amino]cyclopropyl}phenyl)benzamide hydrochloride]	
> 10	5.7	< 0.1	O=C(Nc1ccc([C@@H]2C[C@H]2NCC2CC2)cc1)c1ccc(-c2cc[nH]n2)cc1 (relative stereo) [Example 113, N-(4-{trans-2-[(cyclopropylmethyl)amino]cyclopropyl}phenyl)-4-(1H-pyrazol-3-yl)benzamide hydrochloride]	
> 10	8.3	< 0.1	O=C(Nc1ccc([C@@H]2C[C@H]2NCC2CC2)cc1)c1ccc(-c2cccnc2)cc1 (relative stereo) [Example 132, N-(4-{trans-2-[(cyclopropyl-methyl)amino]-cyclopropyl}-phenyl)-4-(pyridin-3-yl)benzamide]	
> 10	5.1	< 0.1	O=C(Nc1ccc([C@@H]2C[C@H]2NCc2cn3ccsc3n2)cc1)c1cccc(C(F)(F)F)c1 (relative stereo) [Example 160, N-(4-{trans-2-[(imidazo[2,1-b][1,3]thiazol-6-ylmethyl)amino]cyclopropyl}phenyl)-3-(trifluoromethyl)benzamide dihydrochloride]	
> 10	4.1	< 0.1	O=C(Nc1ccc([C@@H]2C[C@H]2NCc2cc3cccnc3s2)cc1)c1cccc(C(F)(F)F)c1 (relative stereo) [Example 161, N-(4-{trans-2-[(thieno[2,3-b]pyridin-2-ylmethyl)amino]cyclopropyl}phenyl)-3-(trifluoromethyl)benzamide hydrochloride]	
> 10	> 10	< 0.1	COc1ccc(CN[C@@H]2C[C@H]2c2ccc(NC(=O)c3cccc(Br)c3)cc2)cc1OC (relative stereo) [Example 6, 3-bromo-N-(4-{trans-2-[(3,4-dimethoxybenzyl)amino]cyclopropyl}phenyl)benzamide]	
> 10	> 10	< 0.1	O=C(Nc1ccc([C@@H]2C[C@H]2NCc2ccccc2F)cc1)c1cccc(C(F)(F)F)c1 (relative stereo) [Example 67, N-(4-{trans-2-[(2-fluorobenzyl)amino]cyclopropyl}phenyl)-3-(trifluoromethyl)benzamide hydrochloride]	
> 10	> 10	< 0.1	O=C(Nc1ccc([C@@H]2C[C@H]2NC2CCS(=O)(=O)CC2)cc1)c1cccc(C(F)(F)F)c1 (relative stereo) [Example 151, N-(4-{trans-2-[(1,1-dioxidotetrahydro-2H-thiopyran-4-yl)amino]cyclopropyl}phenyl)-3-(trifluoromethyl)benzamide hydrochloride]	
> 10	3.3	0.14	O=C(Nc1ccc([C@@H]2C[C@H]2NCc2ccccc2)cc1)c1cccc(Oc2ccccc2)c1 (relative stereo) [Example 10, N-{4-[trans-2-(benzylamino)cyclopropyl]phenyl}-3-phenoxybenzamide]	
> 10	2.4	0.15	O=C(Nc1ccc([C@@H]2C[C@H]2NCc2ccccc2)cc1)c1cccc(OCc2ccccc2)c1 (relative stereo) [Example 11, N-{4-[trans-2-(benzylamino)cyclopropyl]phenyl}-3-(benzyloxy)benzamide hydrochloride]	
> 10	9.3	0.2	CCCCCCCCN[C@@H]1C[C@H]1c1ccc(NC(=O)c2ccccc2)cc1 (relative stereo) [Example 2, N-{4-[trans-2-(octylamino)cyclopropyl]phenyl}benzamide]	
> 10	> 10	< 0.1	Cc1nc(-c2cccc(C(=O)Nc3ccc([C@@H]4C[C@H]4NCC4CC4)cc3)c2)cs1 (relative stereo) [Example 101, N-(4-{trans-2-[(cyclopropylmethyl)-amino]cyclopropyl}-phenyl)-3-(2-methyl-1,3-thiazol-4-yl)benzamide]	

SMILES	IC50 [1] [µM]	IC50 [2] [µM]	IC50 ([3]; read-out: LSD1 IC50 value) [µM]	IC50 [3] [µM]
CN1C2CCC1CC(N[C@@H]1C[C@H]1c1ccc(NC(=O)c3cccc(C(F)(F)F)c3)cc1)C2 (relative stereo) [Example 149, N-(4-{trans-2-[(8-methyl-8-azabicyclo[3.2.1]oct-3-yl)amino]cyclopropyl}phenyl)-3-(trifluoromethyl)benzamide dihydrochloride]	> 10	> 10		< 0.1
